Measured values published in patent US20070099888A1, “Inflammation Inhibitor Comprising Zinc Salt of Acylamino Acid” (priority 2004, published 2007).

What follows are compounds tested on AP-1 (assay: Effect of the zinc salt of acylamino acid on AP-1 activation by ultraviolet light (gel shift assay)). Settings: human dermal fibroblasts; 50 μM test compound added 18 hours before UVA 20 J/cm2; nuclear protein collected after 4 to 5 hours.
Type: cell-based
Experimental: After 18 hours, the culture medium was replaced with a phenol red-free medium. By using […]-80 (manufactured by Toshiba Medical Supply Co., Ltd.), the fibroblasts were irradiated with ultraviolet light (UVA: 20 J/cm2). After 4 to 5 hours, the cells were collected, and a nuclear protein was extracted by a standard method. With regard to the obtained nuclear protein, activated AP-1 was detected by a gel shift assay. By measuring the radioactivity value of the AP-1 band using a bioimaging analyzer, BAS2000 (manufactured by Fuji Film Co., Ltd.), the amount of AP-1 was quantified. The inhibition ratio of activation of AP-1 of the test compound was calculated by the following formula. […] A1: radioactivity value of AP-1 band with addition of test compound […] A3: radioactivity value of AP-1 band without addition of test compound and without ultraviolet irradiation
For NCC(=O)[O-].NCC(=O)[O-].[Zn+2] [Zinc salt of glycine], the “Inhibition ratio of activation of AP-1” value was −72.8%.
In the case of N[C@@H](CCC(=O)[O-])C(=O)[O-].[Zn+2] [Zinc salt of L-glutamic acid], the “Inhibition ratio of activation of AP-1” value is reported as 2.4%.
CCCCCCCCCCCC(=O)N[C@@H](Cc1c[nH]cn1)C(=O)[O-].CCCCCCCCCCCC(=O)N[C@@H](Cc1c[nH]cn1)C(=O)[O-].[Zn+2] [Zinc salt of N-lauroyl-L-histidine] was tested, and the “Inhibition ratio of activation of AP-1” value was 54.8%.
In the case of CCCCCCCCCCCC(=O)N[C@@H](CCC(=O)[O-])C(=O)[O-].[Zn+2] [Zinc salt of N-lauroyl-L-glutamic acid], the “Inhibition ratio of activation of AP-1” value is reported as 89.6%.
CCCCCCCCCCCC(=O)[O-].CCCCCCCCCCCC(=O)[O-].[Zn+2] [Zinc salt of lauric acid] was tested, and the “Inhibition ratio of activation of AP-1” value was 9.1%.
In the case of CCCCCCCCCCCC(=O)NCC(=O)[O-].CCCCCCCCCCCC(=O)NCC(=O)[O-].[Zn+2] [Zinc salt of N-lauroyl glycine], the “Inhibition ratio of activation of AP-1” value is reported as 59.2%.
